Assay: DNA protection assay of DMDK lipoplex against DNase and human CSF (agarose gel)
Type: in vitro ADME
Details: lipoplex incubated with DNAses or human CSF in vitro
Procedure: Naked DNA and DMDK/DNA complexes were incubated at 37° C. for thirty minutes with 1 μl of RQ1 RNase-Free DNase and 10× Reaction Buffer (Promega, Madison, Wis.). One unit of RQ1 RNase-Free DNase (1 unit/μl) is defined as the amount required to completely degrade 1 μg of lambda DNA in 10 minutes at 37° C. in 50 μl of a buffered solution. After 30 minutes of incubation, aliquots were removed and used for transfection or phenol/chloroform extraction.
Incubation and transfection were also carried out in human CSF, obtained under an approved IRB protocol at the University of Pennsylvania, wherein CSF was collected under sterile conditions at the Hospital of the University of Pennsylvania during the normal course of pre-operative spinal anesthetic administration.
An equal volume of phenol/chlororform/isoamyl alcohol was added to the DNA solution. This solution was vortexed for 10 seconds, briefly centrifuged, and the aqueous layer removed and placed in a new tube. 1/10 volume of 3M sodium acetate was added and then vortexed. Next, 2.5 volumes of ice-cold 100% EtOH was added, vortexed and placed in a −70° C. freezer for 15 minutes. The solution was then microcentrifuged for 5 minutes at maximum speed, and the supernatant was removed. 1 ml of 70% EtOH (room temperature) was added, and centrifuged for 5 minutes at maximum speed. The supernatant was removed and the pellet dried. […]

Q: With CCCCCCCCCCCCCCC(=O)C(=O)CCCCCCCCCCCCCC [DMDK, Dimyristyl Diketone] as the molecule, how does the “protection of plasmid DNA from degradation from DNAses or from human cerebral spinal fluid” value read?
A: effectively protect plasmid DNA from degradation
